Test results published in EP0118750A2, “Regeneration of NAD(P) cofactor” (PHILLIPS PETROLEUM COMPANY, priority 1983, dated 1984).

The compounds below were run against T1, horse liver alcohol dehydrogenase (Equus caballus, UniProt P00327) (assay: Dissolved oxygen decrease on adding alcohol substrates to the cofactor regeneration system (NAD, HL-ADH, acetaldehyde, alcohol oxidase)). Settings: relative decrease in dissolved oxygen level upon addition of 0.1 mL of 2.5 vol % solution of the alcohol; phosphate buffer pH 8.
T1 construct: 0.5 mL horse liver-alcohol dehydrogenase solution (Sigma-1 mg/mL); purchased Sigma; host or cells: horse liver
T1 sequence (P00327 2-375 limits assumed): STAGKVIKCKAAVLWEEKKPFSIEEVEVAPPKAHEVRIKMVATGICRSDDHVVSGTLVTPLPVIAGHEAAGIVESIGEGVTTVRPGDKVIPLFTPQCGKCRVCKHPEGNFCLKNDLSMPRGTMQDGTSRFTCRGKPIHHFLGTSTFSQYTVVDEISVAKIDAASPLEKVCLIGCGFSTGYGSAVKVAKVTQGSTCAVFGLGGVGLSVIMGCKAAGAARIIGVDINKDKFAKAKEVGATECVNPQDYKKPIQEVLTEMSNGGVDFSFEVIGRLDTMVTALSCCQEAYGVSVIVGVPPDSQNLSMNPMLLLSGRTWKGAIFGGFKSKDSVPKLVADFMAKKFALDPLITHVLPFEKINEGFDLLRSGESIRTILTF
Type: biochemical
Procedure: The following reagents were admixed in a small beaker: • 2.7 mL aerated potassium phosphate buffer (0.05 M; pH 8) • 0.01 mL of NAD solution (10 mg/mL or 0.025 M) • 0.5 mL horse liver-alcohol dehydrogenase solution (Sigma-1 mg/mL) • 0.1 mL of 1 M acetaldehyde • 0.1 mL of saturated alcohol oxidase (~ 10 mg/mL, prepared as described in example I)
A dissolved oxygen probe, connected to an electronic signal differentiator, was placed in the above prepared solution. The relative decrease in dissolved oxygen level (ADO) was monitored upon addition of 0.1 mL of 2.5 vol % solutions of several alcohols: […]
For `OC1CCCCC1` [cyclohexanol], the ΔDO was “Yes”.
With `OC=CCCO` [3-buten-1,4-diol] the ΔDO was “Yes”.
With `CCC(C)O` (stereo not shown) [2-butanol] the ΔDO was “Yes”.
`C=CC(C)O` (stereo not shown) [3-buten-2-ol] was tested, and the ΔDO was “Yes”.
With `C=CCCCCCCCCO` [9-decen-1-ol] the ΔDO was “Yes”.
`OCCCCO` [1,4-butanediol] was tested, and the ΔDO was “Yes”.
In the case of `CC(C)(C)O` [tertiary butanol], the ΔDO is reported as “No”.
